Measured values from the NIST ThermoML archive (doi:10.1021/je200373q).

Assay: xn = mol fraction of the nth substance listed
Conditions: 101 kPa, Liquid, Vibrating tube method

CCCCCCCCC [nonane] + CCCCCCCC
mass density [kg/m3]
Conditions	x2 = 0.1017	x2 = 0.2023	x2 = 0.3016	x2 = 0.4	x2 = 0.4987	x2 = 0.6006	x2 = 0.7002	x2 = 0.7986	x2 = 0.8989
273.15 K	731.51	730.03	728.78	727.43	725.78	724.52	722.97	721.5	719.99
278.15 K	727.69	726.2	724.94	723.57	721.91	720.65	719.08	717.59	716.07
283.15 K	723.84	722.35	721.07	719.7	718.01	716.75	715.16	713.66	712.12
288.15 K	719.99	718.48	717.19	715.8	714.11	712.83	711.22	709.71	708.16
293.15 K	716.12	714.6	713.29	711.9	710.18	708.9	707.27	705.75	704.18
298.15 K	712.24	710.7	709.38	707.97	706.24	704.95	703.31	701.76	700.18
303.15 K	708.34	706.79	705.46	704.03	702.28	700.97	699.32	697.75	696.15
308.15 K	704.41	702.86	701.51	700.07	698.3	696.98	695.31	693.73	692.11
313.15 K	700.48	698.9	697.54	696.08	694.3	692.97	691.28	689.68	688.04
318.15 K	696.52	694.93	693.55	692.08	690.27	688.92	687.22	685.6	683.95
323.15 K	692.53	690.93	689.53	688.05	686.22	684.87	683.14	681.5	679.83
328.15 K	688.53	686.91	685.49	683.99	682.15	680.78	679.03	677.37	675.69
333.15 K	684.5	682.86	681.43	679.91	678.05	676.66	674.89	673.22	671.51
338.15 K	680.44	678.78	677.34	675.8	673.91	672.5	670.73	669.03	667.3
343.15 K	676.36	674.68	673.22	671.66	669.75	668.33	666.53	664.81	663.06
348.15 K	672.25	670.55	669.07	667.5	665.56	664.12	662.3	660.56	658.78
353.15 K	668.11	666.39	664.88	663.29	661.33	659.87	658.02	656.27	654.47
358.15 K	663.93	662.18	660.67	659.05	657.07	655.6	653.72	651.94	650.1
363.15 K	659.72	657.95	656.41	654.78	652.77	651.27	649.36	647.56	645.72

CCCCC [pentane] + CCCCCCCC
mass density [kg/m3]
Conditions	x1 = 0.1002	x1 = 0.2008	x1 = 0.3023	x1 = 0.4019	x1 = 0.5001	x1 = 0.5982	x1 = 0.7022	x1 = 0.8003	x1 = 0.8991
278.15 K	709.35	704.52	698.24	691.87	685.19	678	669.63	660.99	651.39
283.15 K	705.34	700.46	694.11	687.66	680.91	673.65	665.18	656.45	646.73
288.15 K	701.31	696.38	689.94	683.43	676.6	669.26	660.68	651.85	642.04
293.15 K	697.26	692.29	685.74	679.16	672.26	664.83	656.15	647.21	637.29
298.15 K	693.19	688.16	681.52	674.87	667.88	660.37	651.58	642.52	632.49
303.15 K	689.09	684.01	677.28	670.54	663.47	655.87	646.96	637.79	627.64
308.15 K	684.97	679.84	673	666.19	659.03	651.33	642.31	633	622.72
313.15 K	680.83	675.63	668.7	661.8	654.59	646.75	637.61	628.16	617.96
318.16 K	676.64	671.38	664.36	657.38	650.06	642.12	632.85	623.27	–
323.16 K	672.43	667.11	659.99	652.92	645.5	637.45	628.04	–	–
328.16 K	668.2	662.81	655.59	648.42	640.9	632.73	–	–	–
333.15 K	663.94	658.48	651.16	–	–	–	–	–	–
338.15 K	659.63	654.1	646.68	–	–	–	–	–	–
343.15 K	655.28	649.68	642.13	–	–	–	–	–	–
348.15 K	650.9	645.21	637.57	–	–	–	–	–	–
353.15 K	646.47	640.7	632.94	–	–	–	–	–	–
358.15 K	642	636.15	628.27	–	–	–	–	–	–
363.15 K	637.48	631.54	623.54	–	–	–	–	–	–

CCCCC [pentane] + CCCCCCCCC
mass density [kg/m3]
Conditions	x1 = 0.1034	x1 = 0.205	x1 = 0.3028	x1 = 0.4006	x1 = 0.5016	x1 = 0.5988	x1 = 0.6992	x1 = 0.7993	x1 = 0.8993
273.15 K	727.17	721.15	714.81	707.86	700	691.84	682.27	672.39	659.26
278.15 K	723.31	717.24	710.84	703.82	695.88	687.64	677.96	667.97	654.69
283.15 K	719.43	713.31	706.84	699.75	691.73	683.4	673.62	663.51	650.07
288.15 K	715.53	709.35	702.82	695.66	687.56	679.14	669.25	659.01	645.41
293.15 K	711.62	705.38	698.79	691.54	683.36	674.84	664.84	654.47	640.71
298.15 K	707.69	701.39	694.73	687.41	679.13	670.52	660.39	649.88	635.96
303.15 K	703.75	697.38	690.65	683.24	674.87	666.16	655.91	645.26	631.15
308.15 K	699.78	693.35	686.54	679.05	670.58	661.76	651.39	640.58	626.28
313.15 K	695.79	689.3	682.41	674.83	666.26	657.33	646.82	635.85	621.36
318.15 K	691.78	685.21	678.25	670.58	661.9	652.86	642.21	631.07	616.37
323.15 K	687.74	681.1	674.06	666.29	657.51	648.34	637.54	626.24	–
328.15 K	683.68	676.97	669.83	661.97	653.07	643.78	632.82	621.34	–
333.15 K	679.6	672.8	665.58	657.61	648.6	639.17	628.05	616.38	–
338.15 K	675.48	668.6	661.28	653.21	644.08	634.51	–	–	–
343.15 K	671.34	664.37	656.96	648.78	–	–	–	–	–
348.15 K	667.16	660.1	652.59	644.3	–	–	–	–	–
353.15 K	662.95	655.79	648.19	639.79	–	–	–	–	–
358.15 K	658.7	651.45	643.74	–	–	–	–	–	–
363.15 K	654.42	647.07	639.25	–	–	–	–	–	–
